# In US11840686B2, “Modulation of prekallikrein (PKK) expression” (Ionis Pharmaceuticals, Inc., priority 2013, dated 2023):
# Strand notation (5' to 3'): a small letter for the sugar, then the base; units joined by * are phosphorothioate-linked, units joined directly phosphodiester-linked; [ ] holds rarer units or linkages, { } end groups; capitals alone tell only the bases. e = 2'-O-(2-methoxyethyl) (MOE); k = constrained ethyl (cEt); [5mC] = 5-methylcytosine; d = 2'-deoxy (DNA)
# Test system: human PKK mRNA
# Experiment: Antisense inhibition of human PKK mRNA in HepaRG cells, 1,000 nM, MOE/deoxy/cEt oligonucleotides (Example 3)
# Assay type: cell-based
# Settings: HepaRG cells, 1,000 nM antisense oligonucleotide, Table 29
# In short: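 HepaRG cells at 20,000 per well electroporated with 1,000 nM 16-mer MOE/cEt/deoxy gapmers (phosphorothioate, 5-methylcytosine). After about 24 h, PKK mRNA measured by qRT-PCR with primer probe set RTS3454, normalized to RIBOGREEN total RNA. Reported as percent inhibition versus untreated cells.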
row,Substance,% inhibition
1,548572 (eG*e[5mC]*kA*dT*dT*dA*d[5mC]*dT*d[5mC]*dA*dG*d[5mC]*dA*kT*kG*eT; antisense) [compound 548572],63%
2,548605 (eT*eG*kG*d[5mC]*dG*dG*dG*dA*dT*dT*dG*dG*dT*kG*kG*eT; antisense) [compound 548605],12%

# Same assay, conditions: HepaRG cells, electroporation with 1,000 nM antisense oligonucleotide, approx. 24 hours, PKK mRNA by RT-PCR (RTS3454), relative to untreated control cells; Table 25 experiment
row,Substance,% inhibition
1,548223 (eT*eA*kG*dA*d[5mC]*d[5mC]*d[5mC]*dA*dG*dA*dA*dT*d[5mC]*kA*kT*eG; antisense) [compound 548223],50%
2,548193 (eT*eG*kT*d[5mC]*d[5mC]*dT*dG*dT*d[5mC]*dA*dA*d[5mC]*dA*kT*kA*eT; antisense) [compound 548193],58%
3,548183 (e[5mC]*eA*kG*dT*d[5mC]*dA*dT*dG*dG*dA*dG*dA*dT*k[5mC]*kT*e[5mC]; antisense) [compound 548183],43%
4,548212 (eA*eG*k[5mC]*d[5mC]*d[5mC]*dA*d[5mC]*d[5mC]*dA*dA*d[5mC]*dA*dA*kT*k[5mC]*eT; antisense) [compound 548212],44%
5,548163 (eA*e[5mC]*k[5mC]*dT*d[5mC]*dG*d[5mC]*dA*dT*dT*dG*dT*d[5mC]*kA*kG*e[5mC]; antisense) [compound 548163],46%
6,548200 (e[5mC]*eT*kA*dA*dT*dG*dT*dG*dG*d[5mC]*dA*d[5mC]*dT*kG*k[5mC]*eA; antisense) [compound 548200],19%
7,548154 (eG*eT*kG*d[5mC]*dT*dG*dA*dA*dA*dG*d[5mC]*dG*dG*kG*k[5mC]*eT; antisense) [compound 548154],7%

# Same assay, conditions: HepaRG cells, electroporation with 1,000 nM antisense oligonucleotide, approx. 24 hours, PKK mRNA by RT-PCR (RTS3454), relative to untreated control cells; Table 26 experiment
row,Substance,% inhibition
1,548243 (eA*eT*kG*d[5mC]*dA*dT*dA*d[5mC]*dT*d[5mC]*dG*d[5mC]*d[5mC]*kT*kT*eT; antisense) [compound 548243],0%
2,548246 (eT*eT*k[5mC]*d[5mC]*dA*dT*dG*d[5mC]*dA*dT*dA*d[5mC]*dT*k[5mC]*kG*e[5mC]; antisense) [compound 548246],46%
3,548282 (antisense eG*eT*kG*dG*dG*dT*dT*dT*dG*d[5mC]*dA*d[5mC]*dA*kT*kG*eG) [compound 548282],73%
4,548269 (antisense eA*eG*k[5mC]*dA*d[5mC]*dA*d[5mC]*dA*dA*dT*dT*dA*d[5mC]*kT*kG*eG) [compound 548269],62%

# Same assay, conditions: HepaRG cells, electroporation with 1,000 nM antisense oligonucleotide, approximately 24 hours, primer probe set RTS3454, relative to untreated control cells; experiment of Table 23
row,Substance,% inhibition
1,547968 (antisense eT*eT*kA*dG*dA*dA*dT*dG*dG*d[5mC]*dA*dG*dG*kG*kT*eT) [compound 547968],37%
2,547980 (antisense eA*eA*kG*dT*d[5mC]*dT*d[5mC]*dT*dT*dG*dG*d[5mC]*dA*kA*kA*e[5mC]) [compound 547980],54%

# Same assay, conditions: HepaRG cells, electroporation with 1,000 nM antisense oligonucleotide, approximately 24 hours, primer probe set RTS3454, relative to untreated control cells; experiment of Table 24
row,Substance,% inhibition
1,548065 (eT*eT*kG*dG*dT*dA*dT*dA*dA*dA*dT*dT*dG*kT*kG*e[5mC]; antisense) [compound 548065],22%
2,548053 (eA*eT*kT*d[5mC]*dA*dA*dA*dG*dG*dA*dG*d[5mC]*d[5mC]*kT*kG*eG; antisense) [compound 548053],36%
3,548000 (antisense e[5mC]*e[5mC]*k[5mC]*dT*dT*dG*dT*dG*dT*d[5mC]*d[5mC]*d[5mC]*dA*kT*kA*e[5mC]) [compound 548000],54%
4,548037 (eA*eA*kT*dG*dT*d[5mC]*dT*dG*dA*d[5mC]*dA*dG*dA*kT*kT*eT; antisense) [compound 548037],70%
5,548058 (eG*e[5mC]*kA*dT*dA*dT*dT*dG*dG*dT*dT*dT*dT*kT*kG*eG; antisense) [compound 548058],71%
6,548015 (eT*eT*kG*dT*d[5mC]*d[5mC]*d[5mC]*d[5mC]*dA*dG*dT*dG*dT*kT*kA*e[5mC]; antisense) [compound 548015],50%
7,548017 (e[5mC]*eA*kA*dG*dA*dA*dG*dA*dG*dT*dT*dT*dG*kT*kT*e[5mC]; antisense) [compound 548017],3%

# Same assay, conditions: PKK mRNA, HepaRG cells, 1,000 nM antisense oligonucleotide; Table 31
row,Substance,% inhibition
1,548645 (antisense e[5mC]*e[5mC]*kA*dG*d[5mC]*dG*d[5mC]*dA*dA*dT*dT*d[5mC]*dT*kG*k[5mC]*eT) [compound 548645],8%
2,548626 (antisense eG*e[5mC]*kA*dG*dT*dA*dT*dG*dT*dT*d[5mC]*dA*dA*kT*k[5mC]*e[5mC]) [compound 548626],36%

# Same assay, conditions: Table 19; HepaRG cells, electroporation with 1,000 nM antisense oligonucleotide, approximately 24 hours; PKK mRNA by RT-PCR (RTS3454), relative to untreated control cells
row,Substance,% inhibition
1,548137 (eA*eG*kG*d[5mC]*dT*d[5mC]*dA*dG*dA*dA*dT*dT*dT*kG*kA*e[5mC]; antisense) [compound 548137],62%
2,548100 (antisense eA*e[5mC]*kT*d[5mC]*dA*dG*d[5mC]*dG*dA*d[5mC]*dT*dT*dT*kG*kG*eT) [compound 548100],25%

# Same assay, conditions: Table 20; HepaRG cells, electroporation with 1,000 nM antisense oligonucleotide, approximately 24 hours; PKK mRNA by RT-PCR (RTS3454), relative to untreated control cells
row,Substance,% inhibition
1,547844 (antisense eG*e[5mC]*kA*d[5mC]*dT*dT*dA*dT*dT*dT*dG*dA*dT*kG*kA*e[5mC]) [compound 547844],13%
2,547873 (antisense e[5mC]*eT*kG*d[5mC]*dT*dA*dA*d[5mC]*d[5mC]*dT*dT*dA*dG*kA*k[5mC]*eA) [compound 547873],77%

# Same assay, conditions: Table 21 experiment; HepaRG cells, electroporation with 1,000 nM antisense oligonucleotide, approx. 24 hours; PKK mRNA by RT-PCR (RTS3454), relative to untreated control cells
row,Substance,% inhibition
1,547834 (eA*eA*kA*d[5mC]*dT*dG*d[5mC]*dA*d[5mC]*d[5mC]*dT*dG*dT*kT*k[5mC]*eG; antisense) [compound 547834],63%
2,547751 (eT*eG*kA*dA*d[5mC]*dG*dG*dT*d[5mC]*dT*dT*d[5mC]*dA*kA*kG*e[5mC]; antisense) [compound 547751],0%
3,547786 (antisense eA*eG*kT*dT*dG*d[5mC]*dT*dT*dG*d[5mC]*dT*dT*dG*kA*kA*eT) [compound 547786],44%
4,547815 (eA*eA*k[5mC]*dT*dT*dG*d[5mC]*dT*dG*dG*dA*dA*dG*kA*kA*eA; antisense) [compound 547815],3%

# Same assay, conditions: Table 22 experiment; HepaRG cells, electroporation with 1,000 nM antisense oligonucleotide, approx. 24 hours; PKK mRNA by RT-PCR (RTS3454), relative to untreated control cells
row,Substance,% inhibition
1,547896 (eT*eA*kG*dG*d[5mC]*dA*dA*dT*dT*dG*dT*dT*d[5mC]*k[5mC]*kG*eG; antisense) [compound 547896],95%
2,547844 (antisense eG*e[5mC]*kA*d[5mC]*dT*dT*dA*dT*dT*dT*dG*dA*dT*kG*kA*e[5mC]) [compound 547844],76%
3,547873 (antisense e[5mC]*eT*kG*d[5mC]*dT*dA*dA*d[5mC]*d[5mC]*dT*dT*dA*dG*kA*k[5mC]*eA) [compound 547873],82%

# Same assay, conditions: Table 27; HepaRG cells, 1,000 nM antisense oligonucleotide; human PKK mRNA
row,Substance,% inhibition
1,548380 (eG*e[5mC]*k[5mC]*d[5mC]*dA*dG*dT*dT*dT*dT*dG*dG*d[5mC]*kA*kA*e[5mC]; antisense) [compound 548380],7%
2,548312 (eA*eT*kT*dT*dG*dG*d[5mC]*d[5mC]*d[5mC]*dT*dG*dA*dG*k[5mC]*k[5mC]*e[5mC]; antisense) [compound 548312],0%
3,548326 (eT*e[5mC]*k[5mC]*dT*dG*dT*dG*dA*d[5mC]*dA*dG*dA*dA*k[5mC]*k[5mC]*eA; antisense) [compound 548326],27%
4,548317 (e[5mC]*e[5mC]*kG*dG*dG*dA*dA*dA*dG*dA*d[5mC]*dT*dG*kT*k[5mC]*eT; antisense) [compound 548317],42%
5,548318 (eA*e[5mC]*kT*dG*d[5mC]*dA*d[5mC]*d[5mC]*d[5mC]*d[5mC]*dA*d[5mC]*dA*kT*kA*eT; antisense) [compound 548318],18%
6,548372 (eG*eA*kT*dA*d[5mC]*d[5mC]*dT*dT*dT*d[5mC]*d[5mC]*dA*d[5mC]*kT*k[5mC]*e[5mC]; antisense) [compound 548372],61%

# Same assay, conditions: Table 28; HepaRG cells, 1,000 nM antisense oligonucleotide; human PKK mRNA
row,Substance,% inhibition
1,548493 (antisense e[5mC]*e[5mC]*kA*d[5mC]*d[5mC]*dG*d[5mC]*dT*dG*d[5mC]*d[5mC]*d[5mC]*dG*k[5mC]*k[5mC]*eA) [compound 548493],37%
2,548499 (antisense eA*eT*kA*d[5mC]*d[5mC]*d[5mC]*dG*dG*dA*dG*dT*d[5mC]*dA*kG*kG*eA) [compound 548499],56%

# Same assay, conditions: Table 30; human PKK mRNA, HepaRG cells, 1,000 nM antisense oligonucleotide
row,Substance,% inhibition
1,548414 (antisense eT*e[5mC]*kT*dA*dA*d[5mC]*dA*dG*dT*dA*dT*d[5mC]*dA*k[5mC]*kT*eG) [compound 548414],20%
2,548434 (antisense eA*e[5mC]*kA*dA*dT*dA*dT*d[5mC]*dA*d[5mC]*dT*dG*dT*kA*k[5mC]*e[5mC]) [compound 548434],63%
3,548400 (eG*eG*kG*d[5mC]*dT*d[5mC]*d[5mC]*dT*dA*dT*dT*d[5mC]*d[5mC]*kA*k[5mC]*e[5mC]; antisense) [compound 548400],13%
4,548448 (eT*e[5mC]*kA*d[5mC]*dT*dG*dT*d[5mC]*d[5mC]*dT*dA*dT*dG*kT*k[5mC]*eA; antisense) [compound 548448],61%
5,548428 (antisense eT*eA*kA*d[5mC]*dT*dA*dT*dA*dA*d[5mC]*dA*dG*dT*kA*kT*e[5mC]) [compound 548428],0%
6,548388 (eA*eA*kG*dA*dG*dG*dA*dT*dG*dT*d[5mC]*dA*dG*kG*k[5mC]*eT; antisense) [compound 548388],4%
